Assay results: PubChem BioAssay (NCI)
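Protocol summary: plate cells (96-well), add compound at 5 concentrations, incubate 48 h, interpolate endpoints linearly. TGI marks complete inhibition of growth.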

Tests used:
Assay in all cases: inhibition of tumour cell growth, NCI panel, 48 h
KM12 colon = test system: KM12 colon
SK-OV-3 ovarian = test system: SK-OV-3 ovarian
HS 578T breast = test system: HS 578T breast
SF-295 CNS = test system: SF-295 CNS
TK-10 renal = test system: TK-10 renal
HOP-92 NSCLC = test system: HOP-92 NSCLC
RPMI-8226 leukemia = test system: RPMI-8226 leukemia
HCC-2998 colon = test system: HCC-2998 colon
LOX IMVI melanoma = test system: LOX IMVI melanoma
UACC-257 melanoma = test system: UACC-257 melanoma

## CCCCCCc1cc2cc(C(=O)Nc3cccc(C(F)(F)F)c3)c(=N)oc2cc1O
KM12 colon
  TGI: 10.3 µM
SK-OV-3 ovarian
  TGI: 10.1 µM
HS 578T breast
  TGI: 9.99 µM
SF-295 CNS
  TGI: 14.1 µM
TK-10 renal
  TGI: 46.6 µM
HOP-92 NSCLC
  TGI: 2.14 µM
RPMI-8226 leukemia
  TGI: > 20.3 µM
HCC-2998 colon
  TGI: 15.8 µM
LOX IMVI melanoma
  TGI: 3.09 µM
UACC-257 melanoma
  TGI: 8.95 µM

## COc1cc(OC)cc(N(C)Cc2cnc3nc(N)nc(N)c3c2C)c1
KM12 colon
  TGI: > 100 µM
SK-OV-3 ovarian
  TGI: > 100 µM
HS 578T breast
  TGI: > 100 µM
SF-295 CNS
  TGI: > 100 µM
TK-10 renal
  TGI: > 100 µM
HOP-92 NSCLC
  TGI: > 100 µM
RPMI-8226 leukemia
  TGI: > 100 µM
HCC-2998 colon
  TGI: > 100 µM
LOX IMVI melanoma
  TGI: > 100 µM
UACC-257 melanoma
  TGI: > 100 µM

## O=C1CSC(c2ccc(Cl)cc2)N1c1ccc(-n2c(-c3ccccc3)nc3ccccc3c2=O)cc1 (stereo not given)
KM12 colon
  TGI: > 100 µM
SK-OV-3 ovarian
  TGI: > 100 µM
HS 578T breast
  TGI: > 100 µM
SF-295 CNS
  TGI: > 100 µM
TK-10 renal
  TGI: > 100 µM
HOP-92 NSCLC
  TGI: > 100 µM
RPMI-8226 leukemia
  TGI: > 100 µM
HCC-2998 colon
  TGI: > 100 µM
LOX IMVI melanoma
  TGI: > 100 µM
UACC-257 melanoma
  TGI: > 100 µM

## COc1ccc(N=Nc2ccc3oc(=O)c(C(=O)Nc4ccc(OC)cc4)cc3c2)cc1
KM12 colon
  TGI: 33.5 µM
SK-OV-3 ovarian
  TGI: 83.5 µM
HS 578T breast
  TGI: 89.9 µM
SF-295 CNS
  TGI: 51.9 µM
TK-10 renal
  TGI: > 100 µM
HOP-92 NSCLC
  TGI: 50.1 µM
RPMI-8226 leukemia
  TGI: 67.2 µM
HCC-2998 colon
  TGI: 45.3 µM
LOX IMVI melanoma
  TGI: 18.1 µM
UACC-257 melanoma
  TGI: 73.9 µM
